# Assays:
# [1] = Highest frequency of moderate liver toxicity observed during clinical trials, expressed as a percentage. [column '% BIOL' in source]; conditions: human
# [2] = human
# [3] = human; remark: listed apart in the source
# [4] = human; remark: listed apart in the source
# [5] = human; remark: listed apart in the source
# [6] = human, serum
# [7] = human; remark: listed apart in the source
# [8] = human, serum, 4383 h
# [9] = human; remark: listed apart in the source
# [10] = Highest frequency of acute liver toxicity observed during clinical trials, expressed as a percentage. [column '% AIGUE' in source]; conditions: human
# [11] = human; remark: listed apart in the source
# [12] = human, serum; remark: listed apart in the source
# [13] = human; remark: listed apart in the source
# [14] = human; remark: listed apart in the source
# 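Throughout, for Hepatotoxicity (association with vascular disease): count of indexed literature references reporting vascular liver injury in humans, e.g. peliosis hepatitis, hepatic veno-occlusive disease or Budd-Chiari syndrome.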
# 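Throughout, for Hepatotoxicity (benign tumour): value is a count of indexed literature references citing a benign tumour confirmed by histopathology.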
# 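Throughout, for Hepatotoxicity (choleostasis): human cholestatic liver injury, shown by histopathology or by peak ALT or AST elevation over alkaline phosphatase ratio below 2, value counts indexed literature reports.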
# 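Throughout, for Hepatotoxicity (chronic liver disease): chronic liver injury confirmed by histopathology or persistently raised serum aminotransferase activity beyond 6 months, value given as the count of indexed literature references.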
# 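Throughout, for Hepatotoxicity (cirrhosis): value is a count of indexed literature references reporting cirrhosis confirmed by histopathology.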
# 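Throughout, for Hepatotoxicity (cytolytic): human cytolytic liver injury, shown by histopathology or by a ratio above 5 of peak ALT or AST elevation to alkaline phosphatase elevation, value counts indexed references.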
# 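Throughout, for Hepatotoxicity (granulomatous hepatitis): value is a count of indexed literature references reporting granulomatous liver disease confirmed by histopathology.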
# 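Throughout, for Hepatotoxicity (malignant tumour): malignant tumour confirmed by histopathology, value gives the count of indexed literature references reporting it.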
# 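Throughout, for Hepatotoxicity (severe hepatitis): human clinical data: severe hepatitis, meaning potentially life-threatening liver failure or clinically observed cases, the value counts how many indexed literature references report it.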
# 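Throughout, for Hepatotoxicity (steatosis): steatosis confirmed by histopathology, value is the count of indexed references.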
Compound,Hepatotoxicity (moderate) [1] [%],Hepatotoxicity (malignant tumour) [2],Hepatotoxicity (severe hepatitis) [3],Hepatotoxicity (choleostasis) [4],Hepatotoxicity (cirrhosis) [5],Hepatotoxicity (moderate) [6],Hepatotoxicity (association with vascular disease) [7],Hepatotoxicity (chronic liver disease) [8],Hepatotoxicity (benign tumour) [9],Hepatotoxicity (acute) [10] [%],Hepatotoxicity (cytolytic) [11],Hepatotoxicity (acute) [12],Hepatotoxicity (granulomatous hepatitis) [13],Hepatotoxicity (steatosis) [14],Hepatotoxicity (moderate) ([1]; Liver) [%],Hepatotoxicity (severe hepatitis) ([3]; Liver),Hepatotoxicity (choleostasis) ([4]; Liver),Hepatotoxicity (acute) ([10]; Liver) [%],Hepatotoxicity (cytolytic) ([11]; Liver),Hepatotoxicity (granulomatous hepatitis) ([13]; Liver)
CCN(CC)C(=O)N1CCN(C)CC1 [DIETHYLCARBAMAZINE],0,0,0,0,0,1,0,0,0,0,0,0,0,0,,,,,,
C[C@@H](O)[C@H]1C(=O)N2C(C(=O)[O-])=C(SC3Cn4cnc[n+]4C3)[C@H](C)[C@H]12 (some centres undefined) [BIAPENEM],40,0,0,0,0,56,0,0,0,0,0,0,0,0,,,,,,
CN[C@@H]1[C@@H](O)[C@@H](O[C@@H]2[C@@H](O)[C@H](O[C@H]3O[C@H](CN)[C@@H](O)[C@H](O)[C@H]3O)[C@@H](N)C[C@H]2NC(=O)[C@@H](O)CN)OC[C@]1(C)O [ISEPAMICIN],30,0,0,0,0,22,0,0,0,0,0,0,0,0,,,,,,
CCN[C@@H]1C[C@H](N)[C@@H](O[C@H]2OC(CN)=CC[C@H]2N)[C@H](O)[C@H]1O[C@H]1OC[C@](C)(O)[C@H](NC)[C@H]1O [NETILMICIN],29.4,0,0,0,0,5,0,0,0,0,0,0,0,0,,,,,,
CC1(C)S[C@@H]2[C@H](NC(=O)[C@H](NC(=O)N3CCNC3=O)c3ccccc3)C(=O)N2[C@H]1C(=O)O [AZLOCILLIN],11.1,0,0,0,0,3,0,0,0,0,0,0,0,0,,,,,,
CO/N=C(\C(=O)N[C@@H]1C(=O)N2C(C(=O)OCOC(=O)C(C)(C)C)=C(/C=C\c3scnc3C)CS[C@H]12)c1csc(N)n1 [CEFDITOREN PIVOXIL],37.5,0,0,0,0,41,0,0,0,0,0,0,0,0,,,,,,
O=C(O)C(=O)O [OXALIC ACID],0,0,0,0,0,1,0,0,0,0,0,0,0,0,,,,,,
NC(CO)(CO)CO [TROMETHAMINE],,0,,,0,0,0,0,0,,,2,,0,0,2,0,0,2,0
"O=[N+]([O-])c1ccc(O)c([N+](=O)[O-])c1 [2,4-DINITROPHENOL]",0,0,2,0,0,0,0,0,0,0,0,3,0,0,,,,,,
Cc1oc(=O)oc1COC(=O)[C@@H]1N2C(=O)[C@@H](NC(=O)[C@H](N)c3ccccc3)[C@H]2SC1(C)C [LENAMPICILLIN],22,0,0,0,0,9,0,0,0,0,0,0,0,0,,,,,,
CC(C)=CCC/C(C)=C/CC/C(C)=C/CCC(=O)OC/C=C(\C)CCC=C(C)C [GEFARNATE],1,0,0,0,0,1,0,0,0,0,0,0,0,0,,,,,,
Cc1cc(C)cc(OCC2CNC(=O)O2)c1 (centres undefined) [METAXALONE],0,0,0,0,0,0,0,0,0,0,0,2,0,0,,,,,,
LENTINAN,2,0,0,0,0,2,0,0,0,0,0,0,0,0,,,,,,
O=C(O)c1nn(Cc2ccc(Cl)cc2Cl)c2ccccc12 [LONIDAMINE],6.4,0,0,0,0,4,0,0,0,0,0,0,0,0,,,,,,
COC1=C(OC)C(=O)C(CCCCCCCCCCO)=C(C)C1=O [IDEBENONE],2.3,0,0,0,0,1,0,0,0,0,0,0,0,0,,,,,,
CC(O)(P(=O)(O)O)P(=O)(O)O [ETIDRONIC ACID],8.7,0,0,0,0,1,0,0,0,0,0,0,0,0,,,,,,
